Here are results for one compound from US10526278B2, “Inhibitors of quorum sensing receptor LasR” (priority 2017, dated 2020).

As usually defined, the IC50 is the concentration that inhibits the measured activity by half.

Test [1] deals with T1, LasR (Pseudomonas aeruginosa, UniProt P25084). The test is described as follows: LasR activation (agonism) assay, methods of Moore et al. 2015. The format is cell-based. Conditions: at high concentrations; FIGS. 8B, 9B, 10B. The source says: (§1) Methods for assessing LasR activation and inhibition are known in the art. More specifically methods as described in Moore et al. 2015 are used herein to assess activation and inhibition.
T1 sequence (P25084 whole entry): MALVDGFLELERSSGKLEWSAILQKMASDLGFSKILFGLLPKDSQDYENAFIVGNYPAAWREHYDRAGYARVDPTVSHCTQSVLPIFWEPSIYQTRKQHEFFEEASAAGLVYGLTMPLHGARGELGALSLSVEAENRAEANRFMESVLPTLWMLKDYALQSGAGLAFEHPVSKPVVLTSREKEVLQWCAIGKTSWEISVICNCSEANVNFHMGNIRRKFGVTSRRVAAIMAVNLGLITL
FIGS. 8A and 8B compare % LasR inhibition (8A) with % LasR activation (8B) for control compound V-06-018.
FIGS. 9A and 9B compare % LasR inhibition (9A) with % LasR activation (9B) for compound 33.
FIGS. 10A and 10B compare % LasR inhibition (10A) with % LasR activation (10B) for compound 32 (thiophene analog of compound 33).

Test [2] deals with P. aeruginosa PAO1. The following applies: earlier reports; cited from earlier work.
Test [3] addresses T1, LasR. The format is cell-based. The following applies: measured vs 25 nM OdDHL.
Text: as §1
IC50 is the concentration of an inhibitor where the response or binding is reduced by half (half maximal inhibitory concentration).

The test system of test [4] is P. aeruginosa PAO1. In words: Elastase B production in P. aeruginosa PAO1 culture supernatants (elastin-Congo red). The format is cell-based, Pseudomonas aeruginosa. The following applies: compound alone 100 μM; % elastase relative to DMSO; FIG. 12A. As to the method:
FIG. 12A is a graph comparing inhibition of elastase (as % relative to DMSO) for certain compounds of the invention. The amount of indicated compound added was 100 μM. M64 alone or in combination was added in the amount of 20 μM. The assay is conducted as described in Welsh et al. (2016) for compounds shown as well as certain compounds in combination with compound M-64 (Starkey, M. et al. (2014)):
The amount of elastase B in P. aeruginosa culture supernatants was measured following a reported protocol (Welsh et al., 2017 and Geske et al., 2007b) with modifications. A 10 mL overnight culture of P. aeruginosa PAO1 was grown for 16 hr. An inoculating culture was prepared by diluting the overnight culture 1:100 into freshly prepared assay medium, and 2 mL aliquots of this subculture were added to each test tube (0.5% DMSO, final). The cultures were grown for 17 hr, and the final cell density measured by reading OD600. […]
To quantify elastase B activity, the undigested elastin was pelleted by centrifugation of the assay plate at […] for 10 min, after which […] of the supernatant was transferred to a new, clear 96-well plate, and the absorbance at 490 nm measured. Media background absorbance (measured from a “no bacteria” control) was subtracted, the resulting values growth normalized by dividing by the final OD600, and the data plotted relative to a DMSO-treated positive control.

Each structure is given as a SMILES string.

Consider `CCCCCCCCCC(=O)CC(=O)Nc1ccccc1` [Compound V-06-018], for which, at LasR [1], the “% LasR activation” value was “does not exhibit LasR activation”. Further, in the test on P. aeruginosa PAO1 [2], the “inhibition of elastase production (previously shown)” value is listed as “previously been shown to inhibit elastase production”. For the same compound, the “Maximum Inhibition (95% CL)” value on LasR [3] is given as 87 (91-85) %. Also, at LasR [3] (read-out: IC50 (95% CL)), the half-inhibitory concentration (IC50) amounted to 2000 nM. In the test with P. aeruginosa PAO1 [4], the “inhibition of production of virulence factor elastase” value is “little or no inhibition”.
